Columns and labels:
Experiment in all cases: Test B pre-/postemergence plant response
Type in all cases: in vivo
[1] = system: Italian ryegrass (Lolium multiflorum)
Summary of the method: (§1)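 Steps: sow seed in loam–sand soil and spray preemergence, or grow plants in peat-based medium to 1–4 leaves (2–18 cm) and spray postemergence; formulation is non-phytotoxic solvent plus surfactant; hold in greenhouse 13–15 days; score visually vs controls, 0 = no effect, 100 = complete control.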

[2] = system: Surinam grass (Brachiaria decumbens)
Summary of the method: as §1

corn (Zea mays) = system: corn (Zea mays)
Summary of the method: as §1

[3] = system: galium (catchweed bedstraw, Galium aparine); conditions: Preemergence
Summary of the method: as §1

[4] = system: goosegrass (Eleusine indica)
Summary of the method: as §1

[5] = system: lambsquarters (Chenopodium album)
Summary of the method: as §1

[6] = system: large crabgrass (Digitaria sanguinalis)
Summary of the method: as §1

[7] = system: nightshade (eastern black nightshade, Solanum ptycanthum); conditions: Preemergence
Summary of the method: as §1

[8] = system: pigweed (Amaranthus retroflexus)
Summary of the method: as §1

[9] = system: sunflower (common oilseed sunflower, Helianthus annuus); conditions: Preemergence
Summary of the method: as §1

[10] = system: woolly cupgrass (Eriochloa villosa)
Summary of the method: as §1

[11] = system: goosegrass (Eleusine indica); conditions: Preemergence, 62 g ai/ha; scale 0 to 100, 0 no effect, 100 complete control
[12] = 250 g ai/ha, Preemergence, 0 to 100 scale
[13] = Postemergence, 31 g ai/ha, scale 0 to 100 (0 no effect, 100 complete control)
[14] = Postemergence, 62 g ai/ha, scale 0 (no effect) to 100 (complete control), 13 to 15 days
[15] = Postemergence, 125 g ai/ha, visual rating after 13 to 15 days, scale 0 (no effect) to 100 (complete control)
[16] = Postemergence, 250 g ai/ha, scale 0 to 100
[17] = Preemergence, 31 g ai/ha, scale 0 to 100 (0 no effect, 100 complete control)
[18] = Preemergence, 62 g ai/ha, scale 0 to 100, 0 no effect, 100 complete control
[19] = Preemergence, 125 g ai/ha, 0 to 100 scale
[20] = 31 g ai/ha, scale 0 to 100 (0 no effect, 100 complete control)
[21] = 62 g ai/ha, scale 0 to 100, 0 no effect, 100 complete control

Substance: 5-[(2-hydroxy-6-oxo-1-cyclohexen-1-yl)carbonyl]-3-(2-methoxyethyl)-2-(3-thienyl)-4(3H)-pyrimidinone [Compound 97]
- Plant response rating, Ryegrass, Italian [1, 12]: 0
- Plant response rating, Ryegrass, Italian [1, 13]: 0
- Plant response rating, Ryegrass, Italian [1, 14]: 0
- Plant response rating, Ryegrass, Italian [1, 15]: 0
- Ryegrass, Italian plant response rating [1, 16]: 20
- Plant response rating, Ryegrass, Italian [1, 17]: 0
- Plant response rating, Ryegrass, Italian [1, 18]: 0
- Ryegrass, Italian plant response rating [1, 19]: 0
- Plant response rating, Surinam Grass [2, 12]: 80
- Plant response rating, Surinam Grass [2, 13]: 60
- Plant response rating, Surinam Grass [2, 14]: 70
- Plant response rating, Surinam Grass [2, 15]: 70
- Surinam Grass plant response rating [2, 16]: 80
- Plant response rating, Surinam Grass [2, 17]: 0
- Plant response rating, Surinam Grass [2, 18]: 10
- Surinam Grass plant response rating [2, 19]: 15
- Plant response rating, Corn (corn (Zea mays); [12]): 0
- Plant response rating, Corn (corn (Zea mays); [13]): 15
- Plant response rating, Corn (corn (Zea mays); [14]): 15
- Plant response rating, Corn (corn (Zea mays); [15]): 45
- Corn plant response rating (corn (Zea mays); [16]): 65
- Plant response rating, Corn (corn (Zea mays); [17]): 0
- Plant response rating, Corn (corn (Zea mays); [18]): 0
- Corn plant response rating (corn (Zea mays); [19]): 0
- Plant response rating, Galium ([3]; 250 g ai/ha, 0 to 100 scale): 85
- Plant response rating, Galium [3, 20]: 0
- Plant response rating, Galium [3, 21]: 10
- Galium plant response rating ([3]; 125 g ai/ha, 0 to 100 scale): 85
- Plant response rating, Goosegrass [4, 12]: 98
- Plant response rating, Goosegrass [4, 13]: 45
- Plant response rating, Goosegrass [4, 14]: 75
- Plant response rating, Goosegrass [4, 15]: 95
- Goosegrass plant response rating [4, 16]: 98
- Plant response rating, Goosegrass [4, 17]: 0
- Goosegrass plant response rating [4, 19]: 95
- Plant response rating, Lambsquarters [5, 12]: 100
- Plant response rating, Lambsquarters [5, 13]: 80
- Plant response rating, Lambsquarters [5, 14]: 80
- Plant response rating, Lambsquarters [5, 15]: 90
- Lambsquarters plant response rating [5, 16]: 95
- Plant response rating, Lambsquarters [5, 17]: 100
- Plant response rating, Lambsquarters [5, 18]: 100
- Lambsquarters plant response rating [5, 19]: 100
- Plant response rating, Crabgrass, Large [6, 12]: 95
- Plant response rating, Crabgrass, Large [6, 13]: 65
- Plant response rating, Crabgrass, Large [6, 14]: 70
- Plant response rating, Crabgrass, Large [6, 15]: 75
- Crabgrass, Large plant response rating [6, 16]: 80
- Plant response rating, Crabgrass, Large [6, 17]: 0
- Plant response rating, Crabgrass, Large [6, 18]: 0
- Crabgrass, Large plant response rating [6, 19]: 70
- Plant response rating, Nightshade ([7]; 250 g ai/ha, 0 to 100 scale): 100
- Plant response rating, Nightshade [7, 20]: 100
- Plant response rating, Nightshade [7, 21]: 100
- Nightshade plant response rating ([7]; 125 g ai/ha, 0 to 100 scale): 100
- Plant response rating, Pigweed [8, 12]: 100
- Plant response rating, Pigweed [8, 13]: 85
- Plant response rating, Pigweed [8, 14]: 85
- Plant response rating, Pigweed [8, 15]: 95
- Pigweed plant response rating [8, 16]: 100
- Plant response rating, Pigweed [8, 17]: 100
- Plant response rating, Pigweed [8, 18]: 100
- Pigweed plant response rating [8, 19]: 100
- Plant response rating, Sunflower ([9]; 250 g ai/ha, 0 to 100 scale): 98
- Plant response rating, Sunflower [9, 20]: 0
- Plant response rating, Sunflower [9, 21]: 80
- Sunflower plant response rating ([9]; 125 g ai/ha, 0 to 100 scale): 95
- Plant response rating, Cupgrass, Woolly [10, 12]: 40
- Plant response rating, Cupgrass, Woolly [10, 13]: 60
- Plant response rating, Cupgrass, Woolly [10, 14]: 70
- Plant response rating, Cupgrass, Woolly [10, 15]: 70
- Cupgrass, Woolly plant response rating [10, 16]: 75
- Plant response rating, Cupgrass, Woolly [10, 17]: 0
- Plant response rating, Cupgrass, Woolly [10, 18]: 10
- Cupgrass, Woolly plant response rating [10, 19]: 35
- Plant response rating, Goosegrass [11]: 75

— US8952024B2, “Herbicidal pyrimidone derivatives” (E I du Pont de Nemours and Company, priority 2009, dated 2015)
